# Measured values as given in patent US9493468B2, “Antifungal 5,6-dihydro-4H-pyrrolo[1,2-a][1,4]benzo-diazepines and 6H-pyrrolo[1,2-a][1,4]benzodiazepines substituted with heterocyclic derivatives” (Janssen Pharmaceutica NV, priority 2011, dated 2016).
# Experiments:
# Type in all cases: cell-based
# Candida parapsilosis = assay: Antifungal activity in vitro, resazurin growth inhibition: Candida parapsilosis (B66126)
# How it was run: (§1)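 Resazurin conversion to fluorescent resorufin (ex 550/em 590 nm) served as the growth readout. Compounds spanned 2- or 4-fold serial dilutions with 64 μM top in-test concentration; inoculum 10^3 cfu per well in MOPS-buffered RPMI-1640 (pH 7.0, 2% glucose). Incubation species-dependent, dermatophytes at 27° C. for ≥1 week.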
# Trichophyton rubrum = assay: Antifungal activity in vitro, resazurin growth inhibition: Trichophyton rubrum (B68183)
# How it was run: (§2)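 Fungi (10^3 cfu/well) grown in RPMI-1640 with L-glutamine, 2% glucose, MOPS pH 7.0, against 2- or 4-fold compound dilutions up to 64 μM. Dermatophytes incubated one week or more at 27° C. Growth inhibition read fluorimetrically (λex 550, λem 590 nm) after resazurin addition and further incubation.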
# Aspergillus fumigatus = assay: Antifungal activity in vitro, resazurin growth inhibition: Aspergillus fumigatus (B42928)
# How it was run: as §1
# Sporothrix schenkii = assay: Antifungal activity in vitro, resazurin growth inhibition: Sporothrix schenkii (B62482)
# How it was run: as §1
# Cryptococcus neoformans = assay: Antifungal activity in vitro, resazurin growth inhibition: Cryptococcus neoformans (B66663)
# How it was run: as §1
# Microsporum canis = assay: Antifungal activity in vitro, resazurin growth inhibition: Microsporum canis (B68128)
# How it was run: as §2
# [1] = system: Trichophyton mentagrophytes; assay: Antifungal activity in vitro, resazurin growth inhibition: Trichophyton mentagrophytes (B70554)
# How it was run: as §2
Compound,"Inf. D: Candida parapsilosis B66126, pIC50 (Candida parapsilosis)","Inf. C: Trichophyton rubrum B68183, pIC50 (Trichophyton rubrum)","Inf. E: Aspergillus fumigatus B42928, pIC50 (Aspergillus fumigatus)","Inf. A: Sporothrix schenkii B62482, pIC50 (Sporothrix schenkii)","Inf. F: Cryptococcus neoformans B66663, pIC50 (Cryptococcus neoformans)","Inf. B: Microsporum canis B68128, pIC50 (Microsporum canis)","Inf. G: Trichophyton mentagrophytes B70554, pIC50 [1]"
Cc1cc(C2=NCc3c(Cl)cccc3-n3cccc32)ccn1 [Compound 96],<4.19,5.10,4.40,<4.19,<4.19,4.80,5.00
CCn1cc(C2=NCc3cc(Cl)cc(Cl)c3-n3cccc32)cn1 [Compound 62],4.23,5.22,4.70,4.51,5.15,4.59,4.86
Cc1ccc(Cl)c2c1-n1cccc1C(c1cc3ccccc3s1)NC2.Cl (racemic) [Compound 57],<4.19,5.10,<4.19,<4.19,<4.19,5.24,<4.19
Clc1cc2cc(C3=NCc4c(Cl)cccc4-n4cccc43)ccc2o1 [Compound 155],4.94,7.15,5.88,5.66,5.81,6.82,6.82
Cl.FC(F)(F)c1ccc(C2NCc3ccccc3-n3cccc32)cn1 (racemic) [Compound 15],<4.19,4.70,<4.19,<4.19,4.92,4.25,4.56
COc1cccc2cc(C3NCc4ccc(Cl)cc4-n4cccc43)oc12.Cl (racemic) [Compound 42],<4.19,5.06,<4.19,<4.19,4.89,4.19,4.49
FC(F)(F)c1ncc(C2=NCc3c(Cl)cc(Cl)cc3-n3cccc32)cn1 [Compound 104],<4.19,5.91,5.54,<4.19,<4.19,<4.19,<4.19
Clc1cccc2c1-n1cccc1C(c1ccc3scc(Cl)c3c1)=NC2 [Compound 179],<4.19,5.03,4.49,4.41,4.67,4.80,4.69
Fc1cc(Cl)c2c(c1)-n1cccc1C(c1ccc(Cl)nc1)=NC2 [Compound 78],5.07,6.18,5.42,<4.19,<4.19,5.41,4.47
FC(F)(F)c1ncc(C2=NCc3ccccc3-n3cccc32)cn1 [Compound 101],<4.19,5.23,<4.19,<4.19,<4.19,4.56,5.57
CC(C)n1ccc(C2=NCc3cccc(Cl)c3-n3cccc32)cc1=O [Compound 71],<4.19,5.55,<4.19,5.42,5.00,5.83,5.78
COc1ccc2oc(C3=NCc4c(Cl)cc(Cl)cc4-n4cccc43)cc2c1 [Compound 148],<4.19,5.04,<4.19,<4.19,<4.19,5.82,4.19
COc1cccc2cc(C3=NCc4ccc(Cl)cc4-n4cccc43)oc12 [Compound 142],<4.19,5.64,<4.19,<4.19,<4.19,<4.19,<4.19
CCn1cc(C2=NCc3c(Cl)ccc(Cl)c3-n3cccc32)cn1 [Compound 61],<4.19,4.52,<4.19,<4.19,4.44,4.66,4.39
Cc1ccc(Cl)c2c1-n1cccc1C(c1cc3ccccc3s1)=NC2 [Compound 169],<4.19,6.01,<4.19,<4.19,<4.19,5.00,<4.19
Cn1ccc2cc(C3=NCc4c(Cl)cccc4-n4cccc43)ccc21 [Compound 106],5.09,6.18,5.05,4.90,5.26,5.79,5.51
COc1ccc2oc(C3=NCc4ccc(Cl)cc4-n4cccc43)cc2c1 [Compound 147],<4.19,5.35,<4.19,<4.19,<4.19,5.66,<4.19
COc1ccc2oc(C3NCc4c(Cl)cccc4-n4cccc43)cc2c1.Cl (racemic) [Compound 44],<4.19,5.20,<4.19,<4.19,<4.19,5.31,4.77
Fc1cc(F)c2c(c1)-n1cccc1C(c1ccc3scnc3c1)=NC2 [Compound 190],<4.19,6.14,<4.19,<4.19,4.93,5.56,5.31
